Source: patent US10787444B2, “Compounds for the modulation of myc activity” (Syros Pharmaceuticals, Inc., priority 2015, dated 2020)
Like-named read-outs stand apart in the source and are kept apart here.

Legend:
[1] = target: T1, c-Myc/Max/Ebox DNA (Homo sapiens, UniProt P01106); assay: c-Myc/Max/Ebox DNA AlphaScreen Assay; format: binding; settings: calculated IC50 class
T1 construct: his6 (cleaved yes)
Outline: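 Compounds were preincubated with free c-Myc (20 nM), biotinylated single-Ebox DNA (10 nM) and Ni acceptor beads before his6-Max (5 nM) and streptavidin donor beads were added. Buffer was 50 mM HEPES pH 8.0, 150 mM NaCl, BSA, Tween20, glycogen and DTT, with DMSO ≤2%. After 2 h incubation, AlphaScreen signal was read at 680 nm excitation and 520–620 nm emission.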

[2] = system: human small lung cancer cell line H2171; assay: Cell Viability Assay (ATPlite); format: cell-based; settings: H2171 cells, three days, ATPlite, calculated IC50 class, read-out: H2171 Activity
Outline: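 H2171 cells were plated at 20,000 cells/mL and dosed immediately by pin transfer with a 10-point dose series in DMSO. After three days at 37° C, ATPlite luminescence served as the viability readout.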

[3] = Homo sapiens, NCI-H2171, 72 h, Table 2, compounds of FIG. 1
[4] = Homo sapiens, NCI-H2171, 72 h, Table 3, compounds of FIG. 2

T1 sequence (P01106 whole entry): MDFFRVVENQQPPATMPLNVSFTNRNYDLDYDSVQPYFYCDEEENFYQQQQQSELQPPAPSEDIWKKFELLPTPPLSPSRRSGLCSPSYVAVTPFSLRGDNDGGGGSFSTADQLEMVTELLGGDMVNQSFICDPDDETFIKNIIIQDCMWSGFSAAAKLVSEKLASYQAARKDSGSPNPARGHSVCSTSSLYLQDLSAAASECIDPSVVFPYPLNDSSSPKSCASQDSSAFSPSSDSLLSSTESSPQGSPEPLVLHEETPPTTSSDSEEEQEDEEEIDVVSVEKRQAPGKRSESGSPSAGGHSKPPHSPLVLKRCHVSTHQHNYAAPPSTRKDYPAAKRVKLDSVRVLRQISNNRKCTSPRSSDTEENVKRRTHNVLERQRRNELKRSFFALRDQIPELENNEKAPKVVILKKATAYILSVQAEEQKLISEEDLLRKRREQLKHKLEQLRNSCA

IC50 ([1]; Table 2, compounds of FIG. 1)	IC50 ([2]; Table 2, compounds of FIG. 1)	IC50 [2, 3]	IC50 ([1]; Table 3, compounds of FIG. 2)	IC50 [2, 4]	SMILES
1 to 10 µM	0.3 to 1 µM	–	–	–	COCCNCCC(=O)Nc1sc2c(c1-c1nc3cc(-c4cccnc4)ccc3s1)CC(C)NC2C (single isomer, unassigned) [Compound 526, N-(5,7-Dimethyl-3-(5-(pyridin-3-yl)benzo[d]thiazol-2-yl)-4,5,6,7-tetrahydrothieno[2,3-c]pyridin-2-yl)-3-((2-methoxyethyl)amino)propanamide]
0.3 to 1 µM	–	< 0.3 µM	–	–	CC[C@@H](C)NCCC(=O)Nc1sc2c(c1-c1nc3ccccc3s1)CCNC2 [Compound 153, (R)—N-(3-(benzo[d]thiazol-2-yl)-4,5,6,7-tetrahydrothieno[2,3-c]pyridin-2-yl)-3-(sec-butylamino)propanamide]
1 to 10 µM	0.3 to 1 µM	–	–	–	COCCNCCC(=O)Nc1sc2c(c1-c1nc3cc(-c4ccncc4)ccc3s1)CC(C)NC2C (single isomer, unassigned) [Compound 523, N-(5,7-dimethyl-3-(5-(pyridin-4-yl)benzo[d]thiazol-2-yl)-4,5,6,7-tetrahydrothieno[2,3-c]pyridin-2-yl)-3-((2-methoxyethyl)amino)propanamide]
< 0.3 µM	–	< 0.3 µM	–	–	CCC(C)NCCC(=O)Nc1sc2c(c1-c1nc3cc(-c4ccncc4)ccc3s1)CCNC2C [Compound 590, 3-(((S)-sec-butyl)amino)-N—((R)-7-methyl-3-(5-pyridin-4-yl)benzo[d]thiazol-2-yl)-4,5,6,7-tetrahydrothieno[2,3-c]pyridin-2-yl)propanamide]

Continued, compound first:

SMILES	IC50 ([1]; Table 2, compounds of FIG. 1)	IC50 ([2]; Table 2, compounds of FIG. 1)	IC50 [2, 3]	IC50 ([1]; Table 3, compounds of FIG. 2)	IC50 [2, 4]
O=C(CCNCCO)Nc1sc2c(c1-c1nc3ccccc3s1)CCNC2 [Compound 310, N-(3-(Benzo[d]thiazol-2-yl)-4,5,6,7-tetrahydrothieno[2,3-c]pyridin-2-yl)-3-((2-hydroxyethyl)amino)propanamide]	< 0.3 µM	–	< 0.3 µM	–	–
CC(=O)Nc1sc2c(c1-c1nc3ccccc3s1)C(F)CNC2 (stereo not drawn) [Compound 217, N-(3-(benzo[d]thiazol-2-yl)-4-fluoro-4,5,6,7-tetrahydrothieno[2,3-c]pyridin-2-yl) acetamide]	–	–	–	> 10 µM	< 0.3 µM
CC(=O)N(C)c1sc2c(c1-c1nc3ccccc3s1)CCNC2 [Compound 232, N-(3-(benzo[d]thiazol-2-yl)-4,5,6,7-tetrahydrothieno[2,3-c]pyridin-2-yl)-N-methylacetamide]	–	–	–	> 10 µM	> 10 µM
CC(C)N1CCc2c(sc(NC(=O)CCNC(C)(C)C)c2-c2nc3ccccc3s2)C1 [Compound 127, N-(3-(benzo[d]thiazol-2-yl)-6-isopropyl-4,5,6,7-tetrahydrothieno[2,3-c]pyridin-2-yl)-3-(tert-butylamino)propanamide]	0.3 to 1 µM	–	0.3 to 1 µM	–	–
CC(C)NCCC(=O)Nc1sc2c(c1-c1nc3ccccc3s1)CC(C)NC2C (single isomer, unassigned) [Compound 196, N-(3-(benzo[d]thiazol-2-yl)-5,7-dimethyl-4,5,6,7-tetrahydrothieno[2,3-c]pyridin-2-yl)-3-(isopropylamino)propanamide]	0.3 to 1 µM	–	< 0.3 µM	–	–
CC(C)NCCC(=O)Nc1sc2c(c1-c1nc3c(Br)cccc3s1)CCNC2 [compound 516]	< 0.3 µM	–	< 0.3 µM	–	–
COCCNCCC(=O)Nc1sc2c(c1-c1nc3cc(-c4cnn(C(C)C)c4)ccc3s1)CCNC2 [compound 465]	< 0.3 µM	–	< 0.3 µM	–	–
CCOC(=O)CCOCCOCCOCCOCCOCCOCCNCCC(=O)Nc1sc2c(c1-c1nc3ccccc3s1)CCNC2 [Compound 622, Ethyl 1-((3-(benzo[d]thiazol-2-yl)-4,5,6,7-tetrahydrothieno[2,3-c]pyridin-2-yl)amino)-1-oxo-7,10,13,16,19,22-hexaoxa-4-azapentacosan-25-oate]	< 0.3 µM	–	< 0.3 µM	–	–
